Test results as given in ChEMBL document CHEMBL1139483, “Inhibitors of tripeptidyl peptidase II. 3. Derivation of butabindide by successive structure optimizations leading to a potential general approach to designing exopeptidase inhibitors” (J Med Chem, 2005).
Where a SMILES comes first, the peptide text is derived from it. [ ]: non-standard residue; d: D form. The star is where a group is joined. Pip = O=C(O)[C@@H]1CCCCN1; Nle = CCCC[C@H](N)C(=O)O; βNA = c1ccc2cc(N*)ccc2c1; Aze = O=C(O)[C@@H]1CCN1; Nva = CCC[C@H](N)C(=O)O; Abu = CC[C@H](N)C(=O)O; Aib = CC(C)(N)C(=O)O; NHBn = c1ccc(CN*)cc1; NHBu = CCCCN*

Biological target: Tripeptidyl-peptidase 2 (Rattus norvegicus, UniProt Q64560)
Sequence (Q64560 whole entry): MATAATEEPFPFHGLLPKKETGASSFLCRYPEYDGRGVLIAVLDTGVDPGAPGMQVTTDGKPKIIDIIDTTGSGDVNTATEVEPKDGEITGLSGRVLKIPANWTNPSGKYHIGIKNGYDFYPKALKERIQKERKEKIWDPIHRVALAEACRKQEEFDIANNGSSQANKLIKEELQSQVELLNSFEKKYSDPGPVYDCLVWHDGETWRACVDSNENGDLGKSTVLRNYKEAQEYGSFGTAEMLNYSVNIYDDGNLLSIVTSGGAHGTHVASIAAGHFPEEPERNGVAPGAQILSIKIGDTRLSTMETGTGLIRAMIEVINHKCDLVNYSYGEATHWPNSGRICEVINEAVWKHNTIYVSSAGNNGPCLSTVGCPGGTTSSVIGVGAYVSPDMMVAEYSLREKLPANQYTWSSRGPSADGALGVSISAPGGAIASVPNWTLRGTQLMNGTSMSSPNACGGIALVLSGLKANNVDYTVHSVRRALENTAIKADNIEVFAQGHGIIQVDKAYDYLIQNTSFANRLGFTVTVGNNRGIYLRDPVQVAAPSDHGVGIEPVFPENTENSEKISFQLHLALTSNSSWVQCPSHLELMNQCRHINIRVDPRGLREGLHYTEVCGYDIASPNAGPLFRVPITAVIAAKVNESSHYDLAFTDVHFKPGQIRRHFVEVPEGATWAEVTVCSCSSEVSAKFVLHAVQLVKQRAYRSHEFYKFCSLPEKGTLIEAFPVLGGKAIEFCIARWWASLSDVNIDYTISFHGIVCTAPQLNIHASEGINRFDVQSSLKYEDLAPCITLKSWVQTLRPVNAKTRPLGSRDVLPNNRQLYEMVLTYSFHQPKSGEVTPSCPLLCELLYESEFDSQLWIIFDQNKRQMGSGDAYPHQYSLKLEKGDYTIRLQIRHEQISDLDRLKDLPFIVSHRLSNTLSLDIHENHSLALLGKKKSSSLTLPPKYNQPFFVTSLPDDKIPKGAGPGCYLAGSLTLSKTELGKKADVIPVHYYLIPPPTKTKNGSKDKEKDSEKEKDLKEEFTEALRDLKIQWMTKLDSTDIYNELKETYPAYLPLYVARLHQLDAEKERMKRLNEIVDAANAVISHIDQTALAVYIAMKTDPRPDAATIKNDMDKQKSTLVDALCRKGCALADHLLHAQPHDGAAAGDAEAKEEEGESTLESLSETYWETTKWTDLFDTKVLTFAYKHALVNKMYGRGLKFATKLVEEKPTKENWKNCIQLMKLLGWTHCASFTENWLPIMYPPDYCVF
Assay: Inhibition of TPPII in rat cerebral membrane
Format: cell membranes

Compound	Ki [µM]
CC[C@H](C)NC(=O)[C@@H]1CCCN1C(=O)[C@@H](N)CC	20
CC[C@@H](C)NC(=O)[C@@H]1CCCN1C(=O)[C@@H](N)CC	4.5
CCC[C@H](N)C(=O)N1CCC[C@H]1C(N)=O (H-[Nva]-Pro-NH2)	1.6
CCCC[C@H](N)C(=O)N1CCC[C@H]1C(N)=O (H-[Nle]-Pro-NH2)	2
CCCCNC(=O)[C@@H]1CCCCN1C(=O)[C@@H](N)CC (H-[Abu]-[Pip]-NHBu)	35
NC(=O)[C@@H]1CCCN1C(=O)[C@@H](N)Cc1ccccc1 (H-Phe-Pro-NH2)	71
CC(C)[C@H](N)C(=O)N1CCC[C@H]1C(=O)NN1CCCCC1	57
C[C@H](N)C(=O)N1CCC[C@H]1C(N)=O (H-Ala-Pro-NH2)	2.1
CC[C@H](C)[C@H](N)C(=O)N1CCC[C@H]1C(N)=O (H-Ile-Pro-NH2)	4.3
CC[C@H](N)C(=O)N1CCCC[C@@H]1C(N)=O	12
CC[C@H](N)C(=O)N1CCC[C@H](C(N)=O)C1	40
CCCCNC(=O)[C@@H]1CC(Cc2ccccc2)CN1C(=O)[C@@H](N)CC (stereo partly drawn)	0.14
CC(C)C[C@H](N)C(=O)N1CCC[C@H]1C(N)=O (H-Leu-Pro-NH2)	2.1
CC[C@H](N)C(=O)N1CCC[C@H]1C(N)=O (H-[Abu]-Pro-NH2)	0.57
CC(C)[C@H](N)C(=O)N1CCC[C@H]1C(=O)Nc1ccc2ccccc2c1 (H-Val-Pro-βNA)	860
CC(C)[C@H](N)C(=O)N1CCC[C@H]1C(=O)NCc1ccccc1 (H-Val-Pro-NHBn)	3.3
CC[C@H](N)C(=O)N1CC[C@H]1C(N)=O (H-[Abu]-[Aze]-NH2)	20
CCCCNC(=O)[C@H]1CCCN1C(=O)[C@@H](N)C(C)C	190
CCCCNC(=O)[C@@H]1CCCN1C(=O)C(C)(C)N (H-[Aib]-Pro-NHBu)	5
CC(C)[C@H](N)C(=O)N1CCC[C@H]1C(N)=O (H-Val-Pro-NH2)	6
CCCCNC(=O)C1CCCCCN1C(=O)[C@@H](N)CC (stereo partly drawn)	6
CCCCNC(=O)[C@@H]1CCCN1C(=O)[C@@H](N)CC (H-[Abu]-Pro-NHBu)	0.08
CC[C@H](N)C(=O)N1CSC[C@@H]1C(N)=O	40
